Legend:
[1] = target: T1, Rho-associated protein kinase 2 (Homo sapiens, UniProt O75116); assay: Inhibition of ROCK2 (unknown origin) using STK2 as substrate after 1 hr
Adenosine receptor A2a [2] = target: T2, Adenosine receptor A2a (Homo sapiens, UniProt P29274); assay: Displacement of [3H]-[…] from human recombinant adenosine A2A receptor
Adenosine receptor A2a [3] = target: T2, Adenosine receptor A2a; assay: Displacement of 2-[2-(4-amino-3-[125I]iodophenyl)ethylamino]adenosine from human recombinant adenosine A2A receptor expressed in HEK293 cells; assay type: cell-based
[4] = target: T1, Rho-associated protein kinase 2; assay: Inhibition of ROCK2 (unknown origin)
Adenosine receptor A3 = target: T3, Adenosine receptor A3 (Homo sapiens, UniProt P0DMS8); assay: Antagonist activity at human adenosine A3 receptor
T3 sequence (P0DMS8 whole entry): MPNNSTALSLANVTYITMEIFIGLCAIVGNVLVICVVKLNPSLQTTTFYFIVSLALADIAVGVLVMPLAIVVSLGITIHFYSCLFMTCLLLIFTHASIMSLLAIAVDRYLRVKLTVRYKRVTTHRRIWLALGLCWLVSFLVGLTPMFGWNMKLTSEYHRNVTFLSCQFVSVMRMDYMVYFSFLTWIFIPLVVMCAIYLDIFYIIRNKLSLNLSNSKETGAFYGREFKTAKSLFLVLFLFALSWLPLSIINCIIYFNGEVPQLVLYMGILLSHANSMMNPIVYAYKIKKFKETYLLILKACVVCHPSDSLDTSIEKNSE

[5] = target: Rho-associated protein kinase 1 (Homo sapiens, UniProt Q13464); assay: Inhibition of ROCK1 (unknown origin)
Rho-associated protein kinase 1, sequence (Q13464 whole entry): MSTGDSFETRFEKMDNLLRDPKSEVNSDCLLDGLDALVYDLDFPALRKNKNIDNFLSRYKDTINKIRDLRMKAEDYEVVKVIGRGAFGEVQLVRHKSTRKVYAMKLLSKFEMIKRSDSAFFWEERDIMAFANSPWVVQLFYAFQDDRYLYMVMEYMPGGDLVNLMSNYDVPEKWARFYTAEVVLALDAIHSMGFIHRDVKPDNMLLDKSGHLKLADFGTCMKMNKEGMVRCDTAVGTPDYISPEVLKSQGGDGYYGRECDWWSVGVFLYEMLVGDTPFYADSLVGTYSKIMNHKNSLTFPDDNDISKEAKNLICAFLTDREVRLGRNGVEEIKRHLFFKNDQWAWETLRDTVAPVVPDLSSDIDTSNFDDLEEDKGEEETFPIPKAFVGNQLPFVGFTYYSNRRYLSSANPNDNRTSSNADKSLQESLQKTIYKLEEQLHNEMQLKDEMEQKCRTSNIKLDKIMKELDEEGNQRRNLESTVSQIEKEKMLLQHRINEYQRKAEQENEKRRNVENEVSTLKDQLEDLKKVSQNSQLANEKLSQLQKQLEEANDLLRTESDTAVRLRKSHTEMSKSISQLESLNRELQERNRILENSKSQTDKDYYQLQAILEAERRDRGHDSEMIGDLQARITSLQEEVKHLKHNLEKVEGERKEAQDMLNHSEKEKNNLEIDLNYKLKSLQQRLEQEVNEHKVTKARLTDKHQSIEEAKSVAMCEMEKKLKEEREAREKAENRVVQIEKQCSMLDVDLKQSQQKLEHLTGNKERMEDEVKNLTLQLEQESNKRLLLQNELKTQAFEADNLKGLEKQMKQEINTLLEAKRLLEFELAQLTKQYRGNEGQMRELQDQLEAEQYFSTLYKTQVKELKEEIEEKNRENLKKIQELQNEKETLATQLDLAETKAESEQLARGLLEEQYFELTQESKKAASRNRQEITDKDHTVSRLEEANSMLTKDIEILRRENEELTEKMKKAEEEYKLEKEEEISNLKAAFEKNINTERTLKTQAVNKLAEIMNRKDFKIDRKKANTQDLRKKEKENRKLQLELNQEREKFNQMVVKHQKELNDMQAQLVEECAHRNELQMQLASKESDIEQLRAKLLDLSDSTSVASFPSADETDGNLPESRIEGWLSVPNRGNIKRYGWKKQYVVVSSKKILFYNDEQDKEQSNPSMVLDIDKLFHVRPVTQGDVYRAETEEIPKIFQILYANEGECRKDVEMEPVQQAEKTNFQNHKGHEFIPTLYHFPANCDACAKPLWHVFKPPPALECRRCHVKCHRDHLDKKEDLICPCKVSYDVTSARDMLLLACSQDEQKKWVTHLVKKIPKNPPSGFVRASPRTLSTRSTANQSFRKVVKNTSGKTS

T1 sequence (O75116 whole entry): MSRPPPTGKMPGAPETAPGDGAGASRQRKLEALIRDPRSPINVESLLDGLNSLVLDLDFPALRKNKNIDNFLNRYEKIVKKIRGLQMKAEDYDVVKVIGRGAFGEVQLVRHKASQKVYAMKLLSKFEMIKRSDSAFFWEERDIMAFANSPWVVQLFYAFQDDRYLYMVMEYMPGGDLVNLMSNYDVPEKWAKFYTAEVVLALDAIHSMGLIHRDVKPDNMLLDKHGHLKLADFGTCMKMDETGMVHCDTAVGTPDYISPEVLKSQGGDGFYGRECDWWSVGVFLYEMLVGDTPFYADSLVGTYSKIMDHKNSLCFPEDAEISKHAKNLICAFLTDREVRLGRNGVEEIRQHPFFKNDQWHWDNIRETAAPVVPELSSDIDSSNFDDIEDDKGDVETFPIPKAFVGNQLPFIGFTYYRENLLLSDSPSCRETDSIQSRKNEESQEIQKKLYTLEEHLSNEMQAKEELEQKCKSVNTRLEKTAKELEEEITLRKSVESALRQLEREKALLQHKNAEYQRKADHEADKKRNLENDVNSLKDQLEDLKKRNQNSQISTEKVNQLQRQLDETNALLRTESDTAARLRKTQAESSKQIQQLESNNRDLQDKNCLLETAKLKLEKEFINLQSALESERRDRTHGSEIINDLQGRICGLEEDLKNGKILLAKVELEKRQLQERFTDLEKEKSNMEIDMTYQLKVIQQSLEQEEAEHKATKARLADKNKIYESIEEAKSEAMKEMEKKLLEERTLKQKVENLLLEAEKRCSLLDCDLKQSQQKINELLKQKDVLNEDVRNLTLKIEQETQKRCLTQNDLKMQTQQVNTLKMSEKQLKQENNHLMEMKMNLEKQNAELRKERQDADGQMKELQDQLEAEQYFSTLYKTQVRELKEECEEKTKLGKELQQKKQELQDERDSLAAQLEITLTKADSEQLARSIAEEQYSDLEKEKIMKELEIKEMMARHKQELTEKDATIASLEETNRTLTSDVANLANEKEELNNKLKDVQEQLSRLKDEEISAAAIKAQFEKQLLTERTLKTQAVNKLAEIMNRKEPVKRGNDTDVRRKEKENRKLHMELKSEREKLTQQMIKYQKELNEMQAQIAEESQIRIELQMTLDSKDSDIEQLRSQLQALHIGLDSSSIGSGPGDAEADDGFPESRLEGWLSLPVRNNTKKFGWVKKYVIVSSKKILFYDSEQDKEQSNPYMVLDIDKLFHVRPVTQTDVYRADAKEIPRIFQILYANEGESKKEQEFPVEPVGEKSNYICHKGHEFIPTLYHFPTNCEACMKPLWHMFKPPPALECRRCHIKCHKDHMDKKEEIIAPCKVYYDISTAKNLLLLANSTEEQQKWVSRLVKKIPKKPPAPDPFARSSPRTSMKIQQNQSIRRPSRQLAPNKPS
T2 sequence (P29274 whole entry): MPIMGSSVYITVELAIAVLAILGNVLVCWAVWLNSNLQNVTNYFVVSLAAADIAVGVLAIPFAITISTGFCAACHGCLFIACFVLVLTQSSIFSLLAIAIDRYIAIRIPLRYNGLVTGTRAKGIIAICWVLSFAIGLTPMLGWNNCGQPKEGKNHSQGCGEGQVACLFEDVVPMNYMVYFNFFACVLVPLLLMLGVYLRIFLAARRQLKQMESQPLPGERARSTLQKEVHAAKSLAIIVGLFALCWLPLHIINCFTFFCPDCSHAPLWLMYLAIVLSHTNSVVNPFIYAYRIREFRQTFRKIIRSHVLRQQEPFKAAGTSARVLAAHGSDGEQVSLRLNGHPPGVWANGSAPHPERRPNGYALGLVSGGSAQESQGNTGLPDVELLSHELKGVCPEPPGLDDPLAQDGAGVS

Compound `CN(C)CCOc1cc(-c2cn[nH]c2)ccc1NC(=O)C1COc2ccccc2O1` (stereo not given) [SR-3677] has an IC50 [1] of 3 nM.
`CCCCCCC#Cc1nc(N)c2ncn([C@@H]3O[C@H](CO)[C@@H](O)[C@H]3O)c2n1` showed a Ki (Adenosine receptor A2a [2]) of 31.8 nM.
`COC(=O)N1CCC(CC#Cc2nc(N)c3ncn([C@@H]4O[C@H](C(=O)NC5CC5)[C@@H](O)[C@H]4O)c3n2)CC1` [EVODENOSON] showed a Kd (Adenosine receptor A2a [3]) of 0.7 nM.
`C[C@H]1CNCCCN1S(=O)(=O)c1cccc2cncc(F)c12` gave an IC50 [4] of 19 nM.
With `CNC(=O)[C@H]1O[C@@H](n2cnc3c(NCc4cccc(I)c4)nc(Cl)nc32)[C@H](OC(C)=O)[C@@H]1OC(C)=O` the Ki (Adenosine receptor A3) was 910 nM.
Work on `NCC(C(=O)Nc1ccc2cnccc2c1)c1ccccc1` (stereo not given) yielded an IC50 [4] of 1.1 nM and an IC50 [5] of 1.2 nM.
Compound `N#CCCCCC#Cc1nc(N)c2ncn([C@@H]3O[C@H](CO)[C@@H](O)[C@H]3O)c2n1` has a Ki (Adenosine receptor A2a [2]) of 49.3 nM.
`NC(C(=O)Nc1ccc2cnccc2c1)c1ccccc1` (stereo not given) gave an IC50 [4] of 1.5 nM and an IC50 [5] of 6 nM.

Reference: ChEMBL document CHEMBL3769306, “Discovery of Molecular Therapeutics for Glaucoma: Challenges, Successes, and Promising Directions” (J Med Chem, 2016)
